Test results taken from patent publication US9861689B2, “Vaccination with immuno-isolated cells producing an immunomodulator” (MaxiVAX SA, priority 2015, dated 2018).

Tests used:
[1] = tested on: STAT5 A/B [pTyr694/699]; experiment: LanthaScreen STAT5 TF-1 Activator Screen, GM-CSF Stimulation; type: cell-based; conditions: cell supernatant
Procedure: A functional cell-based assay was performed in order to determine the biological activity of the GM-CSF produced by the MVX-1 cell line. Two samples of the cell supernatant containing the produced GM-CSF were tested in duplicate using the LanthaScreen™ Cellular Assay (ThermoFisher Scientific), which uses time-resolved resonance energy transfer (TR-FRET) between a terbium-labeled phosphorylation-site specific antibody (PSSA) and a green fluorescent protein (GFP fusion of a particular kinase substrate to provide an assay readout that is ratiometric, robust, and amenable to high-throughput screening (HTS) applications. The use of a GFP fusion of the target along with a single detection antibody simplifies the assay protocol, eliminates the need for beads or additional reagents, and simplifies the assay relative to other two-antibody “sandwich” approaches.
1. 32 μL of cells diluted in Assay Media to appropriate cell density are added to the assay plate. […]
4. The assay plate is incubated at 37° C./5% CO2 in a humidified incubator for a pre-determined length of time (cell line/assay specific).
5. Cells are lysed by the addition of lysis buffer with a pre-determined concentration of Tb-labeled Ab (assay specific).
6. The assay plates are incubated in the dark at room temperature for a pre-determined length of time (assay specific).
7. Read plate on a fluorescence plate reader. […]

[2] = tested on: STAT5 A/B [pTyr694/699]; conditions: STAT5 TF-1 cell line, inhibitor mode, GM-CSF stimulation; representative value; cited from earlier work
[3] = tested on: STAT5 A/B [pTyr694/699]; conditions: STAT5 TF-1 cell line, activator mode; representative value; cited from earlier work

## GM-CSF produced by the MVX-1 cell line: huGM-CSF in cell supernatant of the genetically modified MVX-1 cell line
[1]; two samples in duplicate (FIGS. 7A-D)
  results of the functional cell-based assay: all positive
[1]; two samples in duplicate, within the limitations of the assay
  biological activity compared with commercially available GM-CSF: equivalent to commercially available GM-CSF

## JAK Inhibitor I
[2]
  IC50: 37.3 nM

## granulocyte macrophage-colony stimulating factor [GM-CSF]
[3]
  EC50: 0.003 nM
